# Data taken from PubChem BioAssay AID256 (DTP/NCI, 2004).
# Values joined by “and” are separate entries in the source; they are usually repeats but may differ in a detail not shown here. Equal values may be shown once. Toxic doses and inconclusive results are not listed.
# Tested on: CD2F1 mice, L1210 leukemia ip, survival T/C
# Test: NCI In Vivo Anticancer Drug Screen. Data for tumor model L1210 Leukemia (intraperitoneal) in CD2F1 (CDF1) mice
# Details: higher = longer survival
# Method in brief: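 Mice carrying a transplanted tumor received test compound or vehicle alone. The value is the measurement in the treated group divided by that in the vehicle-treated control group.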
# [1] = endpoint: mean survival time, dose: 12.5 mg/kg/injection, schedule: Q04DX003 (ip), vehicle: saline
# [2] = endpoint: mean survival time, dose: 25.0 mg/kg/injection, schedule: Q04DX003 (ip), vehicle: saline
# [3] = endpoint: mean survival time, dose: 100.0 mg/kg/injection, schedule: Q01DX009 (ip), vehicle: saline with Tween-80
# [4] = endpoint: mean survival time, dose: 200.0 mg/kg/injection, schedule: Q01DX009 (ip), vehicle: saline with Tween-80
# [5] = endpoint: mean survival time, dose: 400.0 mg/kg/injection, schedule: Q01DX009 (ip), vehicle: saline with Tween-80
# [6] = endpoint: mean survival time, dose: 50.0 mg/kg/injection, schedule: Q01DX009 (ip), vehicle: saline with Tween-80
# [7] = endpoint: mean survival time, dose: 100.0 mg/kg/injection, schedule: Q04DX003 (ip), vehicle: saline with Tween-80
# [8] = endpoint: mean survival time, dose: 200.0 mg/kg/injection, schedule: Q04DX003 (ip), vehicle: saline with Tween-80
compound,measurement,setting,value
C[NH-].C[NH-].C[NH-].C[NH-].O=C(O)c1cc(C(=O)O)c(C(=O)O)cc1C(=O)O.[Pt+2].[Pt+2],T/C,"endpoint: mean survival time, dose: 3.12 mg/kg/injection, schedule: Q04DX003 (ip), vehicle: distilled water + Tween-80",100 % of control
same,T/C,"endpoint: mean survival time, dose: 6.25 mg/kg/injection, schedule: Q04DX003 (ip), vehicle: distilled water + Tween-80",102 % of control
same,T/C,"endpoint: mean survival time, dose: 12.5 mg/kg/injection, schedule: Q04DX003 (ip), vehicle: distilled water + Tween-80",103 % of control
same,T/C,"endpoint: mean survival time, dose: 25.0 mg/kg/injection, schedule: Q04DX003 (ip), vehicle: distilled water + Tween-80",105 % of control
same,T/C,"endpoint: mean survival time, dose: 50.0 mg/kg/injection, schedule: Q04DX003 (ip), vehicle: distilled water + Tween-80",102 % of control
same,T/C,"endpoint: mean survival time, dose: 100.0 mg/kg/injection, schedule: Q04DX003 (ip), vehicle: distilled water + Tween-80",103 % of control
same,T/C,"endpoint: mean survival time, dose: 200.0 mg/kg/injection, schedule: Q04DX003 (ip), vehicle: distilled water + Tween-80",107 % of control
[Cl][Pt+2][Cl].[NH-]CC1(C[NH-])CCC1,T/C,"endpoint: mean survival time, dose: 3.12 mg/kg/injection, schedule: Q04DX003 (ip), vehicle: saline",111 % of control
same,T/C,[1],229 % of control
same,T/C,[2],272 % of control
same,T/C,"endpoint: mean survival time, dose: 50.0 mg/kg/injection, schedule: Q04DX003 (ip), vehicle: saline",174 % of control and 231 % of control
same,T/C,"endpoint: mean survival time, dose: 100.0 mg/kg/injection, schedule: Q04DX003 (ip), vehicle: saline",164 % of control and 335 % of control
same,T/C,"endpoint: mean survival time, dose: 200.0 mg/kg/injection, schedule: Q04DX003 (ip), vehicle: saline",90 % of control
same,T/C,"endpoint: median survival time, dose: 0.1 mg/kg/injection, schedule: Q01DX009 (ip), vehicle: Klucel (hydroxypropylcellulose) (HPC)",111 % of control
same,T/C,"endpoint: median survival time, dose: 0.2 mg/kg/injection, schedule: Q01DX009 (ip), vehicle: Klucel (hydroxypropylcellulose) (HPC)",111 % of control
same,T/C,"endpoint: median survival time, dose: 1.5 mg/kg/injection, schedule: Q01DX009 (ip), vehicle: carboxymethylcellulose (CMC)",239 % of control
same,T/C,"endpoint: median survival time, dose: 3.0 mg/kg/injection, schedule: Q01DX009 (ip), vehicle: carboxymethylcellulose (CMC)",281 % of control
same,T/C,"endpoint: median survival time, dose: 3.12 mg/kg/injection, schedule: Q01DX009 (ip), vehicle: Klucel (hydroxypropylcellulose) (HPC)",222 % of control and 320 % of control
same,T/C,"endpoint: median survival time, dose: 3.13 mg/kg/injection, schedule: Q01DX009 (ip), vehicle: Klucel (hydroxypropylcellulose) (HPC)",169 % of control and 206 % of control
same,T/C,"endpoint: median survival time, dose: 6.0 mg/kg/injection, schedule: Q01DX001 (ip), vehicle: carboxymethylcellulose (CMC)",171 % of control
same,T/C,"endpoint: median survival time, dose: 8.0 mg/kg/injection, schedule: Q01DX001 (ip), vehicle: other",186 % of control
same,T/C,"endpoint: median survival time, dose: 9.0 mg/kg/injection, schedule: Q01DX001 (ip), vehicle: carboxymethylcellulose (CMC)",176 % of control
same,T/C,"endpoint: median survival time, dose: 9.0 mg/kg/injection, schedule: Q01DX009 (ip), vehicle: carboxymethylcellulose (CMC)",114 % of control
same,T/C,"endpoint: median survival time, dose: 12.0 mg/kg/injection, schedule: Q01DX001 (ip), vehicle: carboxymethylcellulose (CMC)",203 % of control
same,T/C,"endpoint: median survival time, dose: 12.0 mg/kg/injection, schedule: Q01DX001 (ip), vehicle: other",212 % of control
same,T/C,"endpoint: median survival time, dose: 15.0 mg/kg/injection, schedule: Q01DX001 (ip), vehicle: carboxymethylcellulose (CMC)",203 % of control
same,T/C,"endpoint: median survival time, dose: 16.0 mg/kg/injection, schedule: Q01DX001 (ip), vehicle: other",242 % of control
same,T/C,"endpoint: median survival time, dose: 20.0 mg/kg/injection, schedule: Q01DX001 (ip), vehicle: other",103 % of control
Cn1nc(NC=O)c(C#N)c1C#N,T/C,"endpoint: mean survival time, dose: 37.5 mg/kg/injection, schedule: Q04DX002 (ip), vehicle: saline with Tween-80",102 % of control
same,T/C,"endpoint: mean survival time, dose: 75.0 mg/kg/injection, schedule: Q04DX002 (ip), vehicle: saline with Tween-80",102 % of control
same,T/C,"endpoint: mean survival time, dose: 150.0 mg/kg/injection, schedule: Q04DX002 (ip), vehicle: saline with Tween-80",98 % of control
Cc1ccc(Nc2ccc(Nc3ccc(C)cc3)c3c2C(=O)c2ccccc2C3=O)cc1,T/C,[3],86 % of control
same,T/C,[4],89 % of control
same,T/C,[5],89 % of control
c1ccc(OCC2CO2)c(OCC2CO2)c1 (stereo not given),T/C,"endpoint: median survival time, dose: 25.0 mg/kg/injection, schedule: Q01DX009 (ip), vehicle: saline with Tween-80",110 % of control and 111 % of control
same,T/C,"endpoint: median survival time, dose: 50.0 mg/kg/injection, schedule: Q01DX009 (ip), vehicle: saline with Tween-80",113 % of control and 117 % of control
same,T/C,"endpoint: median survival time, dose: 200.0 mg/kg/injection, schedule: Q01DX009 (ip), vehicle: saline with Tween-80",153 % of control and 168 % of control
same,T/C,"endpoint: median survival time, dose: 400.0 mg/kg/injection, schedule: Q01DX009 (ip), vehicle: saline with Tween-80",104 % of control
NS(=O)(=O)c1cc2c(cc1Cl)NCNS2(=O)=O,T/C,[3],98 % of control
same,T/C,[4],98 % of control
same,T/C,[5],96 % of control
O=C(O)Cc1ccccc1C(=O)O.[Pb],T/C,[6],102 % of control
same,T/C,[3],102 % of control
same,T/C,[7],93 % of control
same,T/C,[8],98 % of control
O=C1c2ccccc2C(=O)c2c(NCCCCCO)ccc(NCCCCCO)c21,T/C,"endpoint: mean survival time, dose: 16.0 mg/kg/injection, schedule: Q01DX009 (ip), vehicle: Klucel (hydroxypropylcellulose) (HPC)",102 % of control
same,T/C,"endpoint: mean survival time, dose: 32.0 mg/kg/injection, schedule: Q01DX009 (ip), vehicle: Klucel (hydroxypropylcellulose) (HPC)",93 % of control
same,T/C,"endpoint: mean survival time, dose: 64.0 mg/kg/injection, schedule: Q01DX009 (ip), vehicle: Klucel (hydroxypropylcellulose) (HPC)",96 % of control
same,T/C,"endpoint: mean survival time, dose: 128.0 mg/kg/injection, schedule: Q01DX009 (ip), vehicle: Klucel (hydroxypropylcellulose) (HPC)",96 % of control
same,T/C,"endpoint: mean survival time, dose: 256.0 mg/kg/injection, schedule: Q01DX009 (ip), vehicle: Klucel (hydroxypropylcellulose) (HPC)",104 % of control
O=c1[nH]cnc2c1ncn2C1OC(CO)C(O)C1O.[Ag+] (stereo not given),T/C,"endpoint: mean survival time, dose: 12.5 mg/kg/injection, schedule: Q01DX005 (ip), vehicle: other",92 % of control
same,T/C,"endpoint: mean survival time, dose: 25.0 mg/kg/injection, schedule: Q01DX005 (ip), vehicle: other",98 % of control
same,T/C,"endpoint: mean survival time, dose: 50.0 mg/kg/injection, schedule: Q01DX005 (ip), vehicle: other",87 % of control
Cc1cc(N)c(S(N)(=O)=O)c([N+](=O)[O-])c1,T/C,"endpoint: mean survival time, dose: 100.0 mg/kg/injection, schedule: Q01DX001 (ip), vehicle: saline with Tween-80",100 % of control
same,T/C,"endpoint: mean survival time, dose: 200.0 mg/kg/injection, schedule: Q01DX001 (ip), vehicle: saline with Tween-80",97 % of control
same,T/C,"endpoint: mean survival time, dose: 400.0 mg/kg/injection, schedule: Q01DX001 (ip), vehicle: saline with Tween-80",94 % of control
S=C1NC=CC(S)N1 (stereo not given),T/C,"endpoint: mean survival time, dose: 100.0 mg/kg/injection, schedule: Q04DX002 (ip), vehicle: saline with Tween-80",103 % of control
same,T/C,"endpoint: mean survival time, dose: 200.0 mg/kg/injection, schedule: Q04DX002 (ip), vehicle: saline with Tween-80",98 % of control
same,T/C,"endpoint: mean survival time, dose: 400.0 mg/kg/injection, schedule: Q04DX002 (ip), vehicle: saline with Tween-80",98 % of control
C=C1CC(C)(Cn2cnc3c(=O)[nH]cnc32)OC1=O (stereo not given),T/C,"endpoint: median survival time, dose: 3.13 mg/kg/injection, schedule: Q01DX005 (ip), vehicle: water",94 % of control
same,T/C,"endpoint: median survival time, dose: 6.25 mg/kg/injection, schedule: Q01DX005 (ip), vehicle: water",94 % of control
same,T/C,"endpoint: median survival time, dose: 12.5 mg/kg/injection, schedule: Q01DX005 (ip), vehicle: water",98 % of control
same,T/C,"endpoint: median survival time, dose: 25.0 mg/kg/injection, schedule: Q01DX005 (ip), vehicle: water",92 % of control
CCC(CO)[N-]CC[N-]C(CC)CO.[Cl][Pt+2][Cl] (stereo not given),T/C,"endpoint: median survival time, dose: 6.25 mg/kg/injection, schedule: Q04DX003 (ip), vehicle: saline",101 % of control
same,T/C,"endpoint: median survival time, dose: 12.5 mg/kg/injection, schedule: Q04DX003 (ip), vehicle: saline",107 % of control
same,T/C,"endpoint: median survival time, dose: 25.0 mg/kg/injection, schedule: Q04DX003 (ip), vehicle: saline",109 % of control
same,T/C,"endpoint: median survival time, dose: 50.0 mg/kg/injection, schedule: Q04DX003 (ip), vehicle: saline",121 % of control
CCOC(=O)NCC[N+](C)(C)C,T/C,"endpoint: mean survival time, dose: 6.25 mg/kg/injection, schedule: Q04DX003 (ip), vehicle: saline",100 % of control
same,T/C,[1],102 % of control
same,T/C,[2],105 % of control
CC(C)(CCC(C)(C)c1ccccc1)c1ccccc1,T/C,[6],96 % of control
same,T/C,[3],96 % of control
same,T/C,[4],96 % of control
OC1(O)CCN(Cc2ccccc2)CC1,T/C,"endpoint: mean survival time, dose: 100.0 mg/kg/injection, schedule: Q04DX003 (ip), vehicle: acetone",94 % of control
same,T/C,"endpoint: mean survival time, dose: 200.0 mg/kg/injection, schedule: Q04DX003 (ip), vehicle: acetone",96 % of control
same,T/C,"endpoint: mean survival time, dose: 400.0 mg/kg/injection, schedule: Q04DX003 (ip), vehicle: acetone",94 % of control
O=C(O)/C=C\C(=O)OCc1ccc(Cl)cc1Cl,T/C,[3],106 % of control
same,T/C,[7],91 % of control
same,T/C,[8],101 % of control
same,T/C,"endpoint: mean survival time, dose: 400.0 mg/kg/injection, schedule: Q04DX003 (ip), vehicle: saline with Tween-80",95 % of control
